Assay results: US11220534B2, “Treatment of neurological diseases” (Lancaster University Business Enterprises Limited, priority 2016, dated 2022)
Where no end group is shown, it is not given here. [ ]: non-standard residue; d: D form. Aib = CC(C)(N)C(=O)O

Assays:
Format in all cases: in vivo
[1] = tested on: APP/PS1 transgenic mice; experiment: Immunohistochemical measurement of synaptic densities (synaptophysin) in the cortex of APP/PS1 transgenic mice; conditions: 10 nmol/kg i.p. once daily for 8 weeks, FIG. 2, N=6 per group
Description: Animal models have been developed to test novel drugs. A standard model for Alzheimer's disease is transgenic mice that express human mutated genes for amyloid production that are known to induce Alzheimer's disease in humans. These APP/PS1 transgenic mice recapitulate some of the symptoms of Alzheimer's disease such as the aggregation of amyloid in the brain, memory loss and the loss of synapses (Radde et al., 2006).
The APP/PS1 mice express human Swedish mutated APP and human mutated presenilin-1 which induce Alzheimer's Disease in humans.
The dose of peptide tested was 10 nmol/kg body weight. The peptides were administered by a once-daily intraperitoneal injection for 8 weeks. Saline injections were administered as a control. Six animals per group were injected with a peptide or a saline control.
Animals (6 per group) were perfused transcardially with 30 ml of ice-cold PBS and 30 ml of ice-cold 4% paraformaldehyde to postfix the brain. The brains were removed and placed in fresh 30% sucrose solution in PBS to cryoprotect tissue and cut at a thickness of 40 μm on a cryostat. Sections were chosen according to stereological rules, with the first section taken at random and every 5th section afterwards. Between 7 and 13 sections were analysed per brain. […]

[2] = tested on: C57BL/6 mice given MPTP; experiment: Rotarod motor control test in the MPTP Parkinson mouse model; conditions: 10 nmol/kg i.p. once daily for 2 weeks, FIG. 3, N=6 per group
Description: A standard model to induce Parkinson like symptoms in mice is the injection of the chemical (MPTP) (Li et al., 2009). This chemical impairs or kills neurons in the brain that produce dopamine. The mice develop motor impairments, and the dopaminergic neurons in the brain are reduced in numbers and function. The enzyme tyrosine hydroxylase (TH) is required to synthesise dopamine. A loss of TH signifies a loss of dopamine production (Harkavyi et al., 2008).
Adult male C57BL/6 mice were given the dopaminergic toxin MPTP (20 mg/kg in 0.1 mL of PBS i.p. at 2-h intervals of 4 doses MPTP; Sigma) or vehicle (PBS) for one day. This treatment selectively affects dopaminergic neurons and induces Parkinson-like symptoms in mice.
The dose of peptide tested was 10 nmol/kg body weight. The peptides were administered by a once-daily intraperitoneal injection for 2 weeks. Saline injections were administered as a control. Six animals per group were injected with a peptide or a saline control.
The rotarod consists of a rotating pole that accelerates over time. Mice are placed on the rod, and motor skills are tested by accelerating the rotation. As the rotation increases, animals lose grip and fall on a cushion located below the rod. […] Each animal's endurance time was recorded, and the average was calculated. Data were analysed using a one-way ANOVA with post-hoc Bonferroni tests.

[3] = tested on: APP/PS1 mice; experiment: Immunostaining for phosphorylated tau protein in the hippocampus; conditions: APP/PS1 mice vs APP/PS1-saline; FIG. 10; N=4 per group
Description: Materials and methods in Example 2 are the same as Example 1 except when stated. Reagents used in Example 2 only include antibodies to p-PI3Kp85, PI3Kp85, p-Akt (ser473), Akt, p-GSK3β ([…]), and GSK3β from Abcam, Inc. Cambridge, UK. The antibody to p-tau (AT8) from Thermo Scientific USA. Mouse Anti-β-actin, Anti-Rabbit IgG, Anti-mouse IgG, CY3-Anti-mouse IgG, RIPA Lysate, BCA Protein Assay Kit, DAPI staining solution and Anti-fluorescence decay agent from Boster (Wuhan, China). After in vivo hippocampal L-LTP recording, the mice were anesthetized with chloral hydrate (0.007 ml/g) by intraperitoneal injection and then the brain tissue was fixed with paraformaldehyde for 24 hours, after that the tissue was transferred to 30% sucrose solution for dehydration. The brain tissue was harvested, frozen in -80° C., and then sliced at a thickness of 30 μm, put the frozen section in PBS, blocked with normal goat serum (Solarbio, Beijing, China), followed by adding the primary antibody, second antibody and DAPI. Phosphorylated tau protein was observed by confocal laser scanning microscopy.

Substance: YXEGTFTSDYSIYLDKQAAXEFVNWLLAGGPSSGAPPPSKRRQRRKKRGY-NH2 (Y[Aib]EGTFTSDYSIYLDKQAA[Aib]EFVNWLLAGGPSSGAPPPSKRRQRRKKRGY-NH2) [DA5, No. 12; X=aminoisobutyric acid]
- synapse loss / synaptic densities in the cortex [1]: protected from synapse loss
- impairment of motor skills (rotarod endurance time) [2]: protect mice from an impairment of motor skills induced by MPTP
- neurofibrillary tangles (immunofluorescence staining of p-tau protein) [3]: reduces neurofibrillary tangles
